Reference: patent publication US10420764B2, “Pharmaceutical formulation of N-[5-[2-(3,5-dimethoxyphenyl)ethyl]-2H-pyrazol-3-YL]-4-[(3R,5S)-3 ,5-dimethylpiperazin-1-YL] benzamide” (AstraZeneca AB, priority 2012, dated 2019)
Where two headings read alike, the source gives them in different places.

Assay: Solubility of Formula (I) in simulated gastric and fasted simulated intestinal fluid
Assay type: physicochemical
Description: Furthermore, we have observed that the compound of Formula (I) may form a viscous material at low pH, which has the effect of reducing the rate at which the drag dissolves. In order to achieve an acceptable rate and extent of dissolution across the physiological pH range, the earlier clinical formulation was manufactured using conditions designed to give a fine granule which, when compressed into tablet form would disperse rapidly upon administration. While this approach did result in an improvement in dissolution performance, ‘filming’ problems were experienced during manufacture. In addition, it was observed that the use of conventional lubricants such as magnesium stearate and sodium stearyl fumarate led to chemical degradation including impurity formation and/or complexation.

solubility (fasted simulated intestinal fluid, pH 6.5, fassif, read-out: solubility in fasted simulated intestinal fluid): ~250 µg/mL
solubility (simulated gastric fluid, pH 1.2, simulated gastric fluid, read-out: solubility in simulated gastric fluid): ~5000 µg/mL
SMILES: COc1cc(CCc2cc(NC(=O)c3ccc(N4C[C@@H](C)N[C@@H](C)C4)cc3)n[nH]2)cc(OC)c1 [Formula (I), N-[5-[2-(3,5-dimethoxyphenyl)ethyl]-2H-pyrazol-3-yl]-4-[(3R,5S)-3,5-dimethylpiperazin-1-yl]benzamide]
